Here are results for 24 molecules from patent US8394792B2, “Heterocyclic derivatives” (C&C Research Laboratories, priority 2008, dated 2013).

Series [1] addresses T1, hURAT1 (Homo sapiens, UniProt Q96S37).
T1 construct: expressed in transfected cells; host or cells: HEK293 (human kidney cell line), transient transfection with Fugene6
T1 sequence (Q96S37 1-553): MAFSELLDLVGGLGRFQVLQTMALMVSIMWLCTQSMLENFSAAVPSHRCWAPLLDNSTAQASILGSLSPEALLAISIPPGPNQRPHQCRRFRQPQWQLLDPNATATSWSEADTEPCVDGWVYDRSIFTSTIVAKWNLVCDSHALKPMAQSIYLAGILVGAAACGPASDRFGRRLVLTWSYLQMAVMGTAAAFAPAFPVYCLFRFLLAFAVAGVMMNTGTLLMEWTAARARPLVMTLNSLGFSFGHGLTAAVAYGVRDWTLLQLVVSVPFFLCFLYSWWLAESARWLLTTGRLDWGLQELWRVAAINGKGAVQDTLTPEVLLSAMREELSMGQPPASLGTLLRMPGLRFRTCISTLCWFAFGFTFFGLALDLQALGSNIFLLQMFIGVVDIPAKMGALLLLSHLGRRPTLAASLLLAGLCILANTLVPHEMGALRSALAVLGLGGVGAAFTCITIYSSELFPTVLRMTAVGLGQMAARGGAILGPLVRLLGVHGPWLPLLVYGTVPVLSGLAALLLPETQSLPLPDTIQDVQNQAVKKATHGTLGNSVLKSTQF
Nature of the series: Test for inhibiting urate reuptake activity via hURAT1 (uric acid transport assay in hURAT1-overexpressed HEK293 cell line). It is filed as cell-based. As to conditions: hURAT1-overexpressed HEK293 cells, [14C]-uric acid uptake, 100 μM uric acid; read-out: IC50 (μM) hURAT, level of uric acid reuptake inhibition. On the procedure: Test for Inhibiting Urate Reuptake Activity Via hURAT1
[hURAT1 Overexpression by Transient Transfection in Human Kidney Cell Line]
A human kidney cell line, HEK293 was incubated by using OptiMEM medium in 100 mm dish at (3*10^6 cells) for 24 hours. In order for the expression of hURAT1, a transfection mixture solution (Fugene6 18 μl:hURAT1 DNA 6 μg=3:1, in 600 μl OptiMEM medium/dish) was prepared and kept for 15 minutes at room temperature. To each dish, 600 μl of the mixture solution was injected and then incubated in 37[…] cell incubator for 24 hours. The hURAT1-overexpressed HEK293 cell line was trypsinized and cells were harvested. Cells were resuspended in medium and seeded at 6*10^5 cells/well and incubated for 24 hours in 24-well plate which was surface-coated with Poly-D-Lysine.
[Uric Acid Transport Assay in hURAT1-Overexpressed HEK293 Cell Line]
For each concentration, the stock sample solution was diluted in PBS (1 μl in 800 μl of PBS) as 1.25 fold concentrated working sample solution to obtain final concentrations of 0.01, 0.1, 1 and 10 μM. The hURAT1-overexpressed cell line was washed with 1 ml of PBS. After washing, PBS was discarded and the sample solution was diluted by 1.25 fold with PBS. Preincubation of cells with 200 μl/well of sample solution made above was conducted for 30 minutes in 37[…] cell incubator. After the incubation, each well was treated with 50 μl of PBS containing 500 μM [^14C]-uric acid (final 100 μM of uric acid/well). Cells were incubated for 2 minutes. The cells were washed twice with 1 ml of PBS.
To measure the uric acid uptake, each well was treated with 150 μl of M-per buffer (PIERCE) and kept in 37° C. cell incubator for 30 minutes to make cell lysates. 150 μl of cell lysates was transferred into test tube and 4 ml of scintillation cocktail was added. CPM value of [^14C]-uric acid absorbed into cells was detected using liquid scintillation counter. IC50 for the inhibition of uric acid uptake by each test sample was analyzed by computational numerical processing.

The target of series [2] is CYP2C9 (Homo sapiens, UniProt P11712). The series is described as follows: biochemical.
Sequence of CYP2C9 (P11712 whole entry): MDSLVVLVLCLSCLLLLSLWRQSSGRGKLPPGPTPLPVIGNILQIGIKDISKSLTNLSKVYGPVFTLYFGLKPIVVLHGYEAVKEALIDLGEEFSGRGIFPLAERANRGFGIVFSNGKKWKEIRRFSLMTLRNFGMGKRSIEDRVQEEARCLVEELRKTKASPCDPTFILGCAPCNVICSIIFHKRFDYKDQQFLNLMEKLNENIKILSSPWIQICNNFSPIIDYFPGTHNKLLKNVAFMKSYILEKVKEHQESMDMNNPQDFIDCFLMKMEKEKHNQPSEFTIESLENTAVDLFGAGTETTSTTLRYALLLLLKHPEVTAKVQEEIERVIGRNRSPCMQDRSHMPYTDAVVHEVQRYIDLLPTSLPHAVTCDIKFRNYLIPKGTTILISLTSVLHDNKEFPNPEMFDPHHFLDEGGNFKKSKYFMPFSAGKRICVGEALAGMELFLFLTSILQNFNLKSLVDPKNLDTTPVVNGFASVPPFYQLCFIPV
Series [3] in a line: Test for solubility according to pH. It is filed as physicochemical. The following applies: 37° C. 2 hours; for solubility at 2 h: thermodynamic from solid.
Procedure: 2.0 g of sodium chloride was dissolved in 7.0 mL of hydrochloric acid and water to make the total volume of 1000 mL. This solution was colorless and clear. Its pH was about 1.2.
To 250 mL of 0.2 mol/L potassium dihydrogen phosphate solution, 118 mL of 0.2 mol/L sodium hydroxide solution and water were added to make the total volume of 1000 mL. This solution was colorless and clear. Its pH was about 6.8.
For the compounds of present invention prepared in the examples, the test samples were prepared in each of the first and second solutions with 2 mg/mL concentration. This test sample solution was agitated for 10 seconds, sonicated for 1 minute and heated at 37° C. for 2 hours. The heated test sample solution was filtered to remove undissolved compounds therein. From filtered solution, 100 μl of the completely dissolved solution was sampled and 100 μl of acetonitrile was added thereto to make test sample solution. For each analysis of test sample solution, the solubility was measured by using liquid chromatography.
[4] abbreviates: pH 1.2, simulated gastric fluid, first solution pH about 1.2, 2 mg/mL, read-out: Solubility (μg/mL) pH 1.2.
The mark [5] stands for this setting: pH 6.8, aqueous buffer, second solution pH about 6.8, 2 mg/mL, read-out: Solubility (μg/mL) pH 6.8.
Setting [6] is: 37 °C, pH 1.2, simulated gastric fluid, first solution pH about 1.2, 2 mg/mL, read-out: Solubility (μg/mL) pH 1.2.
[7] abbreviates: 37 °C, pH 6.8, aqueous buffer, second solution pH about 6.8, 2 mg/mL, read-out: Solubility (μg/mL) pH 6.8.

≈ marks a conversion by molar mass, not a printed value. Structures can show the parent of a compound that is named as a salt. Where two headings read alike, the source gives them in different places.

On to `Oc1c(Br)cc(C(=S)N2CCOc3ccncc32)cc1Br` [Compound 74, (3,5-dibromo-4-hydroxy-phenyl)-(2,3-dihydro-pyrido[4,3-b][1,4]oxazin-4-yl)-methanethione trifluoroacetic acid salt], for which the values for the IC50 in series [1] and in series [2] were 0.006 µM and 16.7 µM, respectively.
The matching figures for `COc1c(Br)cc(C(=O)N2CCOc3ncc(C#N)cc32)cc1Br` [Compound 47-1, 1-(3,5-dibromo-4-methoxy-benzoyl)-2,3-dihydro-1H-pyrido[2,3-b][1,4]oxazin-7-carbonitrile]: 0.516 µM and more than 20 µM.
As to `O=C(CN1CCOc2ccncc21)c1cc(Br)c(O)c(Br)c1` [Compound 54, 1-(3,5-dibromo-4-hydroxy-phenyl)-2-(2,3-dihydro-pyrido[4,3-b][1,4]oxazin-4-yl)-ethanone], in series [2], the half-inhibitory concentration (IC50) is more than 6 µM.
On to `O=C(c1cc(Br)c(O)c(Br)c1)N1CCOc2ncc(-c3cccc(C(F)(F)F)c3)cc21` [Compound 63, (3,5-dibromo-4-hydroxy-phenyl)-[7-(3-trifluoromethyl-phenyl)-2,3-dihydro-pyrido[2,3-b][1,4]oxazin-1-yl]-methanone], for which the half-maximal inhibitory concentration (IC50) came out at 0.0123 µM in series [1] and 1.11 µM in series [2].
As for `O=C(c1ccc(O)c(Cl)c1)N1CCOc2ccncc21` [Compound 10, (3-chloro-4-hydroxy-phenyl)-(2,3-dihydro-pyrido[4,3-b][1,4]oxazin-4-yl)-methanone bromic acid salt], the results for the half-maximal inhibitory concentration (IC50) in series [1] and in series [2] were 0.334 µM and more than 60 µM, respectively.
Regarding `COc1c(Br)cc(C(=O)N2CCOc3cnccc32)cc1Br` [Compound 5, (3,5-dibromo-4-methoxy-phenyl)-(2,3-dihydro-pyrido[3,4-b][1,4]oxazin-1-yl)-methanone], the IC50 in series [1] came out at 0.175 µM.
As to `O=C(c1cc(Br)c([O-])c(Br)c1)N1CCOc2ccncc21.[K+]` [Compound 73], the solubility at 2 h is 1150 µg/mL in series [3] (setting [4]) and 565 µg/mL in series [3] (setting [5]).
With `O=C(c1cc(Br)c(O)c(Br)c1)N1CCOc2ncc(-c3ccoc3)cc21` [Compound 53, (3,5-dibromo-4-hydroxy-phenyl)-(7-furan-3-yl-2,3-dihydro-pyrido[2,3-b][1,4]oxazin-1-yl]-methanone], the IC50 was found to be 0.0562 µM in series [1] and 10.3 µM in series [2].
As for `CC(=O)c1ccc(-c2cnc3c(c2)N(C(=O)c2cc(Br)c(O)c(Br)c2)CCO3)cc1` [Compound 67, 1-{4-[1-(3,5-dibromo-4-hydroxy-benzoyl)-2,3-dihydro-1H-pyrido[2,3-b][1,4]oxazin-7-yl]-phenyl}-ethanone], in series [1], the half-inhibitory concentration (IC50) was 0.0078 µM.
Take `O=C(c1ccc(O)c(Cl)c1)N1CCOc2cnccc21` [Compound 34, (3-chloro-4-hydroxy-phenyl)-(2,3-dihydro-pyrido[3,4-b][1,4]oxazin-1-yl)-methanone]: the concentration for half-maximal inhibition (IC50) in series [2] worked out at 19.6 µM.
For the molecule `O=C(c1cc(O)nc(O)n1)N1CCOc2ccncc21` [Compound 60, (2,3-dihydro-pyrido[4,3-b][1,4]oxazin-4-yl)-(2,6-dihydroxy-pyrimidin-4-yl)-methanone], the solubility at 2 h is 2130 µg/mL (≈ 7.75 mM) in series [3] (setting [6]) and 600 µg/mL (≈ 2.19 mM) in series [3] (setting [7]). Further, the IC50 in series [2] is more than 20 µM.
`COc1c(Br)cc(C(=O)N2CCOc3ncc(C(F)(F)F)cc32)cc1Br` [Compound 22-1, (3,5-dibromo-4-methoxy-phenyl)-(7-trifluoromethyl-2,3-dihydro-pyrido[2,3-b][1,4]oxazin-1-yl)-methanone]: the IC50 in series [1] was found to be 0.0888 µM; in series [2], 13.4 µM.
In the case of `Cl.O=C(c1cc(Br)c(O)c(Br)c1)N1CCOc2ccncc21` [Compound 33, (3,5-dibromo-4-hydroxy-phenyl)-(2,3-dihydro-pyrido[4,3-b][1,4]oxazin-4-yl)-methanone hydrochloric acid salt], the results for the solubility at 2 h in series [3] (setting [4]) and in series [3] (setting [5]) were 1580 µg/mL and 810 µg/mL, respectively.
Take `O=C(c1ccc(O)c(Br)c1)N1CCOc2cnccc21` [Compound 40, (3-bromo-4-hydroxy-phenyl)-(2,3-dihydro-pyrido[3,4-b][1,4]oxazin-1-yl)-methanone]: the solubility at 2 h was 1320 µg/mL (≈ 3.93 mM) in series [3] (setting [6]) and 473 µg/mL (≈ 1.41 mM) in series [3] (setting [7]). The half-maximal inhibitory concentration (IC50) in series [2] was determined as 15.1 µM.
In turn, `COc1c(Br)cc(C(=O)N2C(=O)COc3ccncc32)cc1Br` [Compound 57, 4-(3,5-dibromo-4-methoxy-benzoyl)-4H-pyrido[4,3-b][1,4]oxazin-3-one] registered an IC50 in series [2] of more than 20 µM.
The molecule `O=S(=O)(c1ccc(O)cc1)N1CCOc2ccncc21` [Compound 35-1, 4-(2,3-dihydro-pyrido[4,3-b][1,4]oxazin-4-sulfonyl)-phenol] displayed an IC50 in series [2] of more than 20 µM.
Same read-out and setting: the same measure for `O=C1CCCN1c1cnc2c(c1)N(C(=O)c1cc(Br)c(O)c(Br)c1)CCO2` [Compound 75, 1-[1-(3,5-dibromo-4-hydroxy-benzoyl)-2,3-dihydro-1H-pyrido[2,3-b][1,4]oxazin-7-yl]-pyrrolidin-2-one]: 11.6 µM.
`O=C(c1cc(O)no1)N1CCOc2ccncc21` [Compound 44, (2,3-dihydro-pyrido[4,3-b][1,4]oxazin-4-yl)-(3-hydroxy-isoxazol-5-yl)-methanone]: the results for the solubility at 2 h in series [3] (setting [6]) and in series [3] (setting [7]) were 1960 µg/mL (≈ 7.93 mM) and 2100 µg/mL (≈ 8.48 mM), respectively. Further, the half-inhibitory concentration (IC50) in series [2] is more than 20 µM.
Take `COc1cc(C(=O)N2CCOc3ccncc32)on1` [Compound 43, (2,3-dihydro-pyrido[4,3-b][1,4]oxazin-4-yl)-(3-methoxy-isoxazol-5-yl)-methanone]: the solubility at 2 h in series [3] (setting [6]) is 1260 µg/mL (≈ 4.82 mM); in series [3] (setting [7]) it was 1010 µg/mL (≈ 3.86 mM). In series [2], the IC50 is more than 20 µM.
Turning to `O=C(c1ccc(O)nc1)N1CCOc2ccncc21` [Compound 32, (2,3-dihydro-pyrido[4,3-b][1,4]oxazin-4-yl)-(6-hydroxy-pyridin-3-yl)-methanone], the solubility at 2 h in series [3] (setting [6]) was 1960 µg/mL (≈ 7.62 mM); in series [3] (setting [7]), 1470 µg/mL (≈ 5.73 mM). In series [2], this molecule yielded a half-inhibitory concentration (IC50) of more than 20 µM.
As to `O=C(c1cc(Cl)nc(Cl)c1)N1CCOc2ccncc21` [Compound 31, (2,6-dichloro-pyridin-4-yl)-(2,3-dihydro-pyrido[4,3-b][1,4]oxazin-4-yl)-methanone], the results for the solubility at 2 h in series [3] (setting [6]) and in series [3] (setting [7]) were 1850 µg/mL (≈ 5.95 mM) and 199 µg/mL (≈ 0.641 mM), respectively. Also, in series [2], the IC50 is more than 20 µM.
Consider `O=C(c1ccc(O)c(Cl)c1)N1CCOc2cnccc21` [Compound 18, (3-chloro-4-hydroxy-phenyl)-(2,3-dihydro-pyrido[3,4-b][1,4]oxazin-1-yl)-methanone bromic acid salt], for which, in series [2], half-maximal inhibition (IC50) was put at 9.7 µM.
Consider `O=C(c1cc(Br)c(O)c(Br)c1)N1CCOc2ccncc21` [Compound 71, (3,5-dibromo-4-hydroxy-phenyl)-(2,3-dihydro-pyrido[4,3-b][1,4]oxazin-4-yl)-methanone sulfuric acid salt], for which the solubility at 2 h in series [3] (setting [6]) was 2140 µg/mL. Further, the “Solubility (μg/mL) pH 6.8” value in series [3] (second solution pH about 6.8, 2 mg/mL) is given as 344.7 μg/mL. For the same molecule, the IC50 in series [2] was more than 20 µM.
As for `O=C(c1cnc(O)nc1O)N1CCOc2ccncc21` [Compound 59, (2,3-dihydro-pyrido[4,3-b][1,4]oxazin-4-yl)-(2,4-dihydroxy-pyrimidin-5-yl)-methanone], the solubility at 2 h was 2240 µg/mL (≈ 8.18 mM) in series [3] (setting [6]) and 676 µg/mL (≈ 2.47 mM) in series [3] (setting [7]). Further, the half-inhibitory concentration (IC50) in series [2] was more than 20 µM.
